Source: the supplement of paper PMC10307832

Columns and labels:
Assay in all cases: relative viability (nuclei count vs DMSO), 5 days (fraction); higher = more cells survive
Sorafenib + Decitabine = compound: CNC(=O)c1cc(Oc2ccc(NC(=O)Nc3ccc(Cl)c(C(F)(F)F)c3)cc2)ccn1 [Sorafenib] + Nc1ncn([C@H]2C[C@H](O)[C@@H](CO)O2)c(=O)n1 [Decitabine] (partner 2 µM)
Summary of the method: (§1)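 Lung cancer cell lines, seeded in 1536-well plates, were treated the following day by pin tool with a single drug or with five library-drug doses (not always all listed) in √10 steps on top of a fixed anchor-drug dose. Cells were fixed and nuclei stained in one step after 5 days, and nuclei were counted. Relative viability is the nuclei count for treated wells divided by that for vehicle wells, reported as medians of duplicate plates.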

Sorafenib + Alpelisib = compound: CNC(=O)c1cc(Oc2ccc(NC(=O)Nc3ccc(Cl)c(C(F)(F)F)c3)cc2)ccn1 [Sorafenib] + Cc1nc(NC(=O)N2CCC[C@H]2C(N)=O)sc1-c1ccnc(C(C)(C)C(F)(F)F)c1 [Alpelisib] (partner 2 µM)
Summary of the method: as §1

Sorafenib + Tozasertib = compound: CNC(=O)c1cc(Oc2ccc(NC(=O)Nc3ccc(Cl)c(C(F)(F)F)c3)cc2)ccn1 [Sorafenib] + Cc1cc(Nc2cc(N3CCN(C)CC3)nc(Sc3ccc(NC(=O)C4CC4)cc3)n2)n[nH]1 [Tozasertib] (partner 0.1 µM)
Summary of the method: as §1

Sorafenib + Bortezomib = compound: CNC(=O)c1cc(Oc2ccc(NC(=O)Nc3ccc(Cl)c(C(F)(F)F)c3)cc2)ccn1 [Sorafenib] + CC(C)C[C@H](NC(=O)[C@H](Cc1ccccc1)NC(=O)c1cnccn1)B(O)O [Bortezomib] (partner 0.002 µM)
Summary of the method: as §1

Sorafenib + Navitoclax = compound: CNC(=O)c1cc(Oc2ccc(NC(=O)Nc3ccc(Cl)c(C(F)(F)F)c3)cc2)ccn1 [Sorafenib] + CC1(C)CCC(c2ccc(Cl)cc2)=C(CN2CCN(c3ccc(C(=O)NS(=O)(=O)c4ccc(N[C@H](CCN5CCOCC5)CSc5ccccc5)c(S(=O)(=O)C(F)(F)F)c4)cc3)CC2)C1 [Navitoclax] (partner 0.5 µM)
Summary of the method: as §1

| Cell Line | relative viability (Sorafenib + Decitabine; first compound 0.08 µM) | relative viability (Sorafenib + Decitabine; first compound 0.253 µM) | relative viability (Sorafenib + Decitabine; first compound 2.53 µM) | relative viability (Sorafenib + Decitabine; first compound 8 µM) | relative viability (Sorafenib + Alpelisib; first compound 0.08 µM) | relative viability (Sorafenib + Alpelisib; first compound 0.253 µM) | relative viability (Sorafenib + Alpelisib; first compound 2.53 µM) | relative viability (Sorafenib + Alpelisib; first compound 8 µM) | relative viability (Sorafenib + Tozasertib; first compound 0.08 µM) | relative viability (Sorafenib + Tozasertib; first compound 0.253 µM) | relative viability (Sorafenib + Tozasertib; first compound 2.53 µM) | relative viability (Sorafenib + Tozasertib; first compound 8 µM) | relative viability (Sorafenib + Bortezomib; first compound 0.08 µM) | relative viability (Sorafenib + Bortezomib; first compound 0.253 µM) | relative viability (Sorafenib + Bortezomib; first compound 2.53 µM) | relative viability (Sorafenib + Bortezomib; first compound 8 µM) | relative viability (Sorafenib + Navitoclax; first compound 0.08 µM) | relative viability (Sorafenib + Navitoclax; first compound 0.253 µM) | relative viability (Sorafenib + Navitoclax; first compound 2.53 µM) | relative viability (Sorafenib + Navitoclax; first compound 8 µM) |
| --- | --- | --- | --- | --- | --- | --- | --- | --- | --- | --- | --- | --- | --- | --- | --- | --- | --- | --- | --- | --- |
| LOU-NH91 | 0.807 | 0.829 | 0.87 | 0.845 | 0.896 | 0.791 | 0.885 | 0.589 | 0.69 | 0.681 | 0.767 | 0.647 | 0.548 | 0.454 | 0.552 | 0.537 | 0.82 | 0.742 | 0.86 | 0.61 |
| LU99A | 0.86 | 0.91 | – | 0.606 | 0.58 | 0.435 | 0.468 | 0.453 | 0.305 | 0.278 | 0.247 | 0.26 | 1.21 | 1.12 | 1.06 | 0.714 | 0.811 | 0.669 | 0.72 | 0.579 |
| LXF-289 | 0.379 | 0.38 | – | 0.329 | 1.09 | 1.04 | 1.05 | 1.02 | 0.178 | 0.184 | 0.177 | 0.174 | 0.98 | 0.997 | 1.03 | 0.926 | 0.971 | 0.959 | 0.999 | 0.943 |
| NCI-H23 | 0.269 | 0.292 | 0.302 | 0.26 | 0.74 | 0.632 | 0.745 | 0.498 | 0.362 | 0.286 | 0.276 | 0.219 | 0.97 | 0.89 | 0.804 | 0.861 | 0.996 | 0.768 | 0.806 | 0.705 |
| NCI-H322M | 0.69 | 0.788 | 0.823 | 0.739 | 0.815 | 0.916 | 0.877 | 0.84 | 0.512 | 0.394 | 0.527 | 0.475 | 1.3 | 1.18 | – | 1.55 | 1.19 | 1.25 | 1.34 | 1.16 |
| NCI-H441 | 0.23 | 0.146 | 0.207 | 0.277 | 0.683 | 0.522 | 0.5 | 0.538 | 0.644 | – | 0.542 | 0.386 | 0.489 | 0.433 | 0.277 | 0.219 | 0.488 | 0.431 | 0.471 | 0.417 |
| NCI-H460 | 0.472 | 0.447 | 0.457 | 0.357 | 0.594 | 0.643 | 0.566 | 0.103 | 0.514 | 0.386 | 0.414 | 0.0751 | 1.01 | 1.02 | 0.972 | – | 1.2 | 1.02 | 1.12 | 0.231 |
| NCI-H520 | – | 0.421 | 0.446 | 0.299 | 0.963 | 0.89 | 0.902 | 0.526 | 0.517 | 0.436 | 0.432 | 0.331 | 0.828 | 0.665 | 0.599 | 0.232 | 1.21 | 1.08 | – | 0.358 |
